Where a name gives a salt, the structure may show the parent alone.

For assay [1], the target named is human AKT2 (Homo sapiens (Human), UniProt P31751). Nature of the assay: AKT2 kinase activity inhibition (TR-FRET, biotinylated Crosstide substrate). It is filed as biochemical. The following applies: preincubation 120 min at 25° C.; ATP 150 μM; Crosstide 500 nM. As to the method: (§1) Preparation of AKT1 and AKT2 and measurement of in vitro inhibitory activity of the above-mentioned compounds against AKT1 and AKT2 kinase activity were carried out with reference to the method disclosed in Biochem. J. Vol. 385, pp 399-408 (2005). In the preparation of AKT1 and AKT2, human AKT1 and AKT2 to which a middle T antigen tag was added were expressed in Sf 9 insect cells, and then AKT1 and AKT2 were prepared following affinity purification and activation by PDK1. The prepared AKT1 and AKT2 were stored at −80° C. until the time of measurement of inhibitory activity of the compounds. In the measurement of inhibitory activity of the compounds, AKT1 or AKT2 and each compound of the present invention were preincubated at 25° C. for 120 minutes in a buffer solution for reaction (15 mM Tris-HCl pH 7.5, 0.01% Tween-20, 2 mM DTT). As a substrate, biotinylated Crosstide (bioton-KGSGSGRPRTSSFAEG), MgCl2, and ATP were added to final concentrations of 500 nM, 10 mM, and 150 μM, respectively, and reactions were carried out at 25° C. for 60 minutes. The reactions were stopped by adding EDTA to a final concentration of 80 mM. Then, a detection liquid in which an Eu-labeled anti-phosphorylation Crosstide antibody (PerkinElmer) and SureLight APC-SA (PerkinElmer) were contained at a final concentration of 0.5 nM and […], respectively, was added, and reactions were carried out at room temperature for 2 hours. Finally, the amount of fluorescence at the time of irradiation of excitation light having a wavelength of 337 nm was measured at dual wavelengths of 620 nm and 665 nm by PHERAstar FS (BMG LABTECH). The amount of phosphorylation was determined from the ratio of the fluorescence amounts at the dual wavelengths. The compound concentration at which phosphorylation can be inhibited by 50% was defined as […] (nM), and the results are shown in Table 4 below.
(Time-resolved FRET reads energy transfer from a long-lived donor to a nearby acceptor.)

The target in assay [2] is human AKT1 (Homo sapiens (Human), UniProt P31749). As to the kind of experiment: AKT1 kinase activity inhibition (TR-FRET, biotinylated Crosstide substrate). Conditions: preincubation 120 min at 25° C.; ATP 150 μM; Crosstide 500 nM. Type of assay: biochemical. The method, then: as §1
Chain of human AKT1 (P31749 whole entry): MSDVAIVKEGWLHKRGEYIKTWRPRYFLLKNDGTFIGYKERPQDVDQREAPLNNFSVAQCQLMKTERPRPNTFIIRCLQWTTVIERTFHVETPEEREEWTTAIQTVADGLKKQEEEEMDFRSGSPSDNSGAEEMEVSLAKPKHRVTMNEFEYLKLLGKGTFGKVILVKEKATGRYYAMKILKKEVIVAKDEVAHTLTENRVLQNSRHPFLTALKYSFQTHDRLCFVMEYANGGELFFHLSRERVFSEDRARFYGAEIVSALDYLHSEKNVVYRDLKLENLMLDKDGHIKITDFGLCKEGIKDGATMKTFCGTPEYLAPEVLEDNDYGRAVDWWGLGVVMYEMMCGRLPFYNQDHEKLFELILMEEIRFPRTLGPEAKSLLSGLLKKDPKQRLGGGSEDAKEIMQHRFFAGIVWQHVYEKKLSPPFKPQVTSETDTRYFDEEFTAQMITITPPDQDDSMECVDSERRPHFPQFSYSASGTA

Chain of human AKT2 (P31751 whole entry): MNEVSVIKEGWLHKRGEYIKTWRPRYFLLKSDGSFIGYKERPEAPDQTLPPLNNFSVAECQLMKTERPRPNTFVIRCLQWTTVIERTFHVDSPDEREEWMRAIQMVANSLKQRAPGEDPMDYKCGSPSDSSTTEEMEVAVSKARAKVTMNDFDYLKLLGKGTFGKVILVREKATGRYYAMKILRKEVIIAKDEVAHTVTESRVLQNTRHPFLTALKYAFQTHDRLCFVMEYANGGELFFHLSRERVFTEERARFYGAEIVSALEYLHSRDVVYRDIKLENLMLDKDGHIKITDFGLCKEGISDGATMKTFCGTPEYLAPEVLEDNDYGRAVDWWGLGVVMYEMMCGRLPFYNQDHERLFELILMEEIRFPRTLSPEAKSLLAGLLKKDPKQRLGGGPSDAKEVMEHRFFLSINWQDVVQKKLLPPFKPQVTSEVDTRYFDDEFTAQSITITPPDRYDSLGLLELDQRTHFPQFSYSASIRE

For orientation: IC50 means the concentration needed to halve the response being measured. A higher IC50 goes with weaker potency in that assay. For `NC1(c2ccc(-c3nc4n(c3-c3ccsc3)COc3ccccc3-4)cc2)CCC1` [Example 14, 1-(4-(3-(thiophen-3-yl)-5H-benzo[e]imidazo[1,2-c][1,3]oxazin-2-yl)phenyl)cyclobutanamine], the figures for the IC50 in assay [1] and in assay [2] were 5.4 nM and 27 nM, respectively.

Take `NC1(c2ccc(-c3nc4n(c3-c3ccsc3)COc3cccc(F)c3-4)cc2)CC(O)(C2CC2)C1` (stereo not drawn) [Example 4, trans-3-amino-1-cyclopropyl-3-(4-(10-fluoro-3-(thiophen-3-yl)-5H-benzo[e]imidazo[1,2-c][1,3]oxazin-2-yl)phenyl)cyclobutanol]: the concentration for half-maximal inhibition (IC50) in assay [1] came out at 0.71 nM; in assay [2] it was 7.1 nM.

Consider `CC1(O)CC(N)(c2ccc(-c3nc4n(c3-c3ccccc3)COc3ncccc3-4)cc2)C1` (stereo not drawn) [Example 39, trans-3-amino-1-methyl-3-(4-(3-phenyl-5H-imidazo[1,2-c]pyrido[3,2-e][1,3]oxazin-2-yl)phenyl)cyclobutanol], for which the IC50 in assay [1] was 0.97 nM; in assay [2], 1.4 nM.

With `COc1ccc2c(n1)-c1nc(-c3ccc(C4(N)CC(C)(O)C4)cc3)c(-c3ccccc3)n1CO2` (stereo not drawn) [Example 51, trans-3-amino-3-(4-(9-methoxy-3-phenyl-5H-imidazo[1,2-c]pyrido[2,3-e][1,3]oxazin-2-yl)phenyl)-1-methylcyclobutanol], the values for the IC50 in assay [1] and in assay [2] were 1.1 nM and 5.5 nM, respectively.

Consider `CCOc1cccc2c1-c1nc(-c3ccc(C4(N)CC(C)(O)C4)cc3)c(-c3ccccc3)n1CO2` (stereo not drawn) [Example 24, trans-3-amino-3-(4-(10-ethoxy-3-phenyl-5H-benzo[e]imidazo[1,2-c][1,3]oxazin-2-yl)phenyl)-1-methylcyclobutanol], for which the values for the IC50 in assay [1] and in assay [2] were 1.8 nM and 30 nM, respectively.

For `NC1(c2ccc(-c3nc4n(c3-c3ccncc3)COc3ccccc3-4)cc2)CCC1` [Example 15, 1-(4-(3-(pyridin-4-yl)-5H-benzo[e]imidazo[1,2-c][1,3]oxazin-2-yl)phenyl)cyclobutanamine], the IC50 in assay [1] turned out to be 6.5 nM; in assay [2], 51 nM.

As to `CC1(O)CC(N)(c2ccc(-c3nc4n(c3-c3ccccc3)COc3cc(C(=O)NCCO)ccc3-4)cc2)C1` (stereo not drawn) [Example 58, 2-(4-(trans-1-amino-3-hydroxy-3-methylcyclobutyl)phenyl)-N-(2-hydroxyethyl)-3-phenyl-5H-benzo[e]imidazo[1,2-c][1,3]oxazine-8-carboxamide], the IC50 in assay [1] was found to be 0.7 nM; in assay [2], 3.1 nM.

With `CC1(O)CC(N)(c2ccc(-c3nc4n(c3-c3ccccc3)COc3ccc(C(N)=O)cc3-4)cc2)C1` (stereo not drawn) [Example 53, 2-(4-(trans-1-amino-3-hydroxy-3-methylcyclobutyl)phenyl)-3-phenyl-5H-benzo[e]imidazo[1,2-c][1,3]oxazine-9-carboxamide], the IC50 was found to be 0.26 nM in assay [1] and 1.6 nM in assay [2].

As to `NC1(c2ccc(-c3nc4n(c3-c3ccccc3)COc3c(F)cccc3-4)cc2)CC(O)(C2CC2)C1` (stereo not drawn) [Example 10, trans-3-amino-1-cyclopropyl-3-(4-(7-fluoro-3-phenyl-5H-benzo[e]imidazo[1,2-c][1,3]oxazin-2-yl)phenyl)cyclobutanol], the IC50 in assay [1] came out at 1.4 nM; in assay [2], 2.3 nM.

For the molecule `CC1(O)CC(N)(c2ccc(-c3nc4n(c3-c3ccccc3)COc3ccc(C(=O)O)cc3-4)cc2)C1` (stereo not drawn) [Example 63, 2-(4-(trans-1-amino-3-hydroxy-3-methylcyclobutyl)phenyl)-3-phenyl-5H-benzo[e]imidazo[1,2-c][1,3]oxazine-9-carboxylic acid hydrochloride], the IC50 stood at 0.91 nM in assay [1] and 5 nM in assay [2].

For `CCOc1cccc2c1-c1nc(-c3ccc(C4(N)CC(O)(C5CC5)C4)cc3)c(-c3ccccc3)n1CO2` (stereo not drawn) [Example 23, trans-3-amino-1-cyclopropyl-3-(4-(10-ethoxy-3-phenyl-5H-benzo[e]imidazo[1,2-c][1,3]oxazin-2-yl)phenyl)cyclobutanol], the figures for the IC50 in assay [1] and in assay [2] were 1.7 nM and 28 nM, respectively.

Take `COc1cccc2c1OCn1c-2nc(-c2ccc([C@]3(N)C[C@@](O)(C4CC4)C3)cc2)c1-c1ccccc1` [Example 19, trans-3-amino-1-cyclopropyl-3-(4-(7-methoxy-3-phenyl-5H-benzo[e]imidazo[1,2-c][1,3]oxazin-2-yl)phenyl)cyclobutanol]: the IC50 in assay [1] worked out at 2 nM; in assay [2], 16 nM.

On to `CC1(O)CC(N)(c2ccc(-c3nc4n(c3-c3ccccc3)COc3cccc(F)c3-4)cc2)C1` (stereo not drawn) [Example 2, trans-3-amino-3-(4-(10-fluoro-3-phenyl-5H-benzo[e]imidazo[1,2-c][1,3]oxazin-2-yl)phenyl)-1-methylcyclobutanol], for which the half-inhibitory concentration (IC50) in assay [1] is 0.5 nM; in assay [2], 4.6 nM.

As to `C[C@]1(O)C[C@@](N)(c2ccc(-c3nc4n(c3-c3ccccc3)COc3ccccc3-4)cc2)C1` [Example 12, trans-3-amino-1-methyl-3-(4-(3-phenyl-5H-benzo[e]imidazo[1,2-c][1,3]oxazin-2-yl)phenyl)cyclobutanol], the IC50 in assay [1] is 1.7 nM; in assay [2] it was 5.3 nM.

As for `CCC1(O)CC(N)(c2ccc(-c3nc4n(c3-c3ccccc3)COc3nccnc3-4)cc2)C1` (stereo not drawn) [Example 43, trans-3-amino-1-ethyl-3-(4-(3-phenyl-5H-imidazo[1,2-c]pyrazino[2,3-e][1,3]oxazin-2-yl)phenyl)cyclobutanol], the results for the 50% inhibitory concentration (IC50) in assay [1] and in assay [2] were 7 nM and 8 nM, respectively.

For the molecule `CC1(O)CC(N)(c2ccc(-c3nc4n(c3-c3ccccc3)COc3ccc(-c5cn[nH]c5)cc3-4)cc2)C1` (stereo not drawn) [Example 49, trans-3-amino-1-methyl-3-(4-(3-phenyl-9-(1H-pyrazol-4-yl)-5H-benzo[e]imidazo[1,2-c][1,3]oxazin-2-yl)phenyl)cyclobutanol], the concentration for half-maximal inhibition (IC50) in assay [1] is 0.42 nM; in assay [2] it was 1.3 nM.

For the molecule `COc1ccc2c(c1)-c1nc(-c3ccc(C4(N)CC(C)(O)C4)cc3)c(-c3ccccc3)n1CO2` (stereo not drawn) [Example 20, trans-3-amino-3-(4-(9-methoxy-3-phenyl-5H-benzo[e]imidazo[1,2-c][1,3]oxazin-2-yl)phenyl)-1-methylcyclobutanol], the IC50 in assay [1] came out at 0.75 nM; in assay [2], 2.9 nM.

`CC1(O)CC(N)(c2ccc(-c3nc4n(c3-c3ccccc3)COc3cc(C(=O)O)ccc3-4)cc2)C1` (stereo not drawn) [Example 64, 2-(4-(trans-1-amino-3-hydroxy-3-methylcyclobutyl)phenyl)-3-phenyl-5H-benzo[e]imidazo[1,2-c][1,3]oxazine-8-carboxylic acid hydrochloride]: the results for the IC50 in assay [1] and in assay [2] were 0.94 nM and 3.1 nM, respectively.

As for `Cc1cccc2c1OCn1c-2nc(-c2ccc([C@]3(N)C[C@@](O)(C4CC4)C3)cc2)c1-c1ccccc1` [Example 26, trans-3-amino-1-cyclopropyl-3-(4-(7-methyl-3-phenyl-5H-benzo[e]imidazo[1,2-c][1,3]oxazin-2-yl)phenyl)cyclobutanol], the 50% inhibitory concentration (IC50) amounted to 1.5 nM in assay [1] and 26 nM in assay [2].

For the molecule `COc1ccc2c(c1)OCn1c-2nc(-c2ccc(C3(N)CC(C)(O)C3)cc2)c1-c1ccccc1` (stereo not drawn) [Example 21, trans-3-amino-3-(4-(8-methoxy-3-phenyl-5H-benzo[e]imidazo[1,2-c][1,3]oxazin-2-yl)phenyl)-1-methylcyclobutanol], the IC50 worked out at 0.91 nM in assay [1] and 6 nM in assay [2].

These data come from US8772283B2, “Imidazo-oxazine compound or salt thereof” (Taiho Pharmaceutical Co., Ltd., priority 2011, dated 2014).
